Measured values taken from patent US9969716B2, “Indole derivatives as modulators of methyl modifying enzymes, compositions and uses thereof” (Constellation Pharmaceuticals, Inc., priority 2013, dated 2018).

What was measured:
EZH2 = EZH2 (Homo sapiens, UniProt Q15910); test: EZH2 assay (rPRC2, 3H SAM methyl transfer to biotinylated oligonucleosomes, FlashPlate); assay type: biochemical
Procedure: EZH2 Assay: Assays were carried out by mixing rPRC2 together with biotinylated oligonucleosome substrates in the presence of the radio-labeled enzyme co-factor, S-adenosyl-L-methionine (^3H SAM) (Perkin Elmer) and monitoring the enzymatically mediated transfer of tritiated methyl groups from ^3H SAM to histone lysine residues. The amount of resulting tritiated methyl histone product was measured by first capturing the biotinylated oligonucleosomes in streptavidin (SAV) coated FlashPlates (Perkin Elmer), followed by a wash step to remove un-reacted ^3H SAM, and then counting on a TopCount NXT 384 well plate scintillation counter (Perkin Elmer). The final assay conditions for EZH2 were as follows: 50 mM Tris Buffer pH 8.5, 1 mM DTT, 69 μM Brij-35 detergent, 5.0 mM MgCl2, 0.1 mg/mL BSA, 0.2 μM ^3H SAM, 0.2 μM biotinylated oligonucleosomes, 3.6 μM H3K27me3 peptide and 2 nM EZH2.
A 12.5 μL volume of the HMT enzyme, H3K27me3 peptide and oligonucleosome substrate in assay buffer was added to each well of the assay plate using a Multidrop Combi (ThermoFisher). Compounds were pre-incubated with the enzyme for 20 min, followed by initiation of the methyltransferase reaction by addition of 12.5 μL of ^3H SAM in assay buffer (final volume=25 μL). The final concentrations of compounds ranged from a top default concentration of 80 μM down to 0.16 μM in ten 2-fold dilution steps. Reactions were carried out for 60 minutes and quenched with 20 μL per well of 1.96 mM SAH, 50 mM Tris pH 8.5, 200 mM EDTA. Stopped reactions were transferred to SAV coated Flashplates (Perkin Elmer), incubated for 120 min, washed with a plate washer, and then read on the TopCount NXT (1.0 min/well) to measure the amount of methyl histone product formed during the reaction.

[1] = tested on: H3K27me3 mark in HeLa cells; test: H3K27me3 Alpha Hela Assay (AlphaLISA); assay type: cell-based; details: Homo sapiens, 72 hrs, read-out: EZH2_Cell_H3K27me3_Alpha_HeLa (EC50_K27me3)
Procedure: Ten different doses of each test compound (in a series of 3-fold dilutions) were plated in duplicate 384-well tissue culture treated plates (Catalog #781080; Greiner Bio One; Monroe, N.C.). Hela cells grown in culture were trypsinized and counted using a Countess® cell counter (Catalog # C10281; Life Technologies, Grand Island, N.Y.). Cell were diluted to 67,000 cells per mL in 10% DMEM (Catalog #10569-010 Life Technologies, Grand Island, N.Y.) and 15 μL (1,000 cells) were plated into each well using the Biotek MicroFlo™ Select Dispenser (BioTek Instruments, Inc. Vermont, USA),) of the 384-well plate. Plates were incubated at 37° C./5% CO2 for 72 hrs. One of the duplicate plates was processed for HeLa assay and the other for viability.
To the plate processed for AlphaLISA was added 5 μL per well Cell-Histone Lysis buffer (1λ) (Catalog # AL009F1 Perkin Elmer; Waltham, Mass.) and the plate was incubated at RT for 30 minutes on a plate shaker with low speed (Model#4625-Q Thermo Scientific; Waltham, Mass.). Then, 10 μL per well Histone Extraction buffer (catalog # AL009F2; Perkin Elmer; Waltham, Mass.) was added and the plate further incubated at RT for 20 min on plate shaker with low speed. To each well was then added 10 μL per well of a 5× mix of anti-K27me3 acceptor beads plus Biotinylated anti-Histone H3 (C-ter) Antibody (diluted to 3 nM final) (Catalog #AL118 Perkin Elmer; Waltham, Mass.). Dilution of the acceptor beads and then anti-Histone H3 was with 1× Histone Detection buffer (Catalog # AL009F3 Perkin Elmer; Waltham, Mass.) which was produced diluted from the 10× stock provided. The plate was sealed with an aluminum plate sealer and incubated at 23° C. for 60 min. We then added 10 μL 5× solution of Streptavidin Donor beads (Catalog #6760002 Perkin Elmer; Waltham, Mass.) (20 μg/mL final in 1× Histone Detection Buffer), sealed the plate with Aluminum plate sealer and incubated at 23° C. for 30 min. The plates were then read using an EnVision-Alpha Reader (model #2104 Perkin Elmer; Waltham, Mass.).
Data from both assays was analyzed using Assay Assistant (Constellation Pharmaceuticals In-house product) and Activity Base (IDBS Ltd, Surrey, UK) template. Data files were imported to Assay Assistant and assay conditions were specified. A unique Analysis ID was created and the data files exported to Activity Base. An analysis template was created on Activity Base to measure dose-dependent inhibition of H3K27me3 mark and cell viability respectively. Readout of DMSO wells were used to normalize the data. Resulting curves were fitted using Activity base software Model 205 (IDBS Ltd, Surrey, UK). The data was checked for quality, validated and integrated in excel format using SARview (IDBS Ltd, Surrey, UK).

EZH2, sequence (Q15910 whole entry): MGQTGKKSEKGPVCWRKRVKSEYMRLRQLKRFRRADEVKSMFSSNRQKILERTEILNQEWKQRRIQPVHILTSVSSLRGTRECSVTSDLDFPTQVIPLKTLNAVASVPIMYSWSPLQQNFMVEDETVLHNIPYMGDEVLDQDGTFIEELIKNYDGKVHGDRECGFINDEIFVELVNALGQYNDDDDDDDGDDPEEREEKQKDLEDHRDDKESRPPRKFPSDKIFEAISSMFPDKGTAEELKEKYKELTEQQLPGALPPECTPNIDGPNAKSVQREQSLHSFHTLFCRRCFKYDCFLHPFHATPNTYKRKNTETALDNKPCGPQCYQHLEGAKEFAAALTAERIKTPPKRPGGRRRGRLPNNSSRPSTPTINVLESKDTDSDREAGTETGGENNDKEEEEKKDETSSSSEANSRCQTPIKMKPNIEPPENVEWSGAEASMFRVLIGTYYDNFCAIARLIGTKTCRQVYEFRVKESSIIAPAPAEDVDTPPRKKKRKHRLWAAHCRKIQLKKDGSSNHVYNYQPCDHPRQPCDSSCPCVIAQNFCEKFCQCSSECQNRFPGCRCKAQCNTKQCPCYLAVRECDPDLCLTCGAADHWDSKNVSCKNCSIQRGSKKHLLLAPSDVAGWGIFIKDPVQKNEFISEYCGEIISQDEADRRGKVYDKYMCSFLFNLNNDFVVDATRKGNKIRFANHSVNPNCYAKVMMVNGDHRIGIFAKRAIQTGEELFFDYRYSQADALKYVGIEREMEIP
EZH2, sequence (O75530 whole entry partner): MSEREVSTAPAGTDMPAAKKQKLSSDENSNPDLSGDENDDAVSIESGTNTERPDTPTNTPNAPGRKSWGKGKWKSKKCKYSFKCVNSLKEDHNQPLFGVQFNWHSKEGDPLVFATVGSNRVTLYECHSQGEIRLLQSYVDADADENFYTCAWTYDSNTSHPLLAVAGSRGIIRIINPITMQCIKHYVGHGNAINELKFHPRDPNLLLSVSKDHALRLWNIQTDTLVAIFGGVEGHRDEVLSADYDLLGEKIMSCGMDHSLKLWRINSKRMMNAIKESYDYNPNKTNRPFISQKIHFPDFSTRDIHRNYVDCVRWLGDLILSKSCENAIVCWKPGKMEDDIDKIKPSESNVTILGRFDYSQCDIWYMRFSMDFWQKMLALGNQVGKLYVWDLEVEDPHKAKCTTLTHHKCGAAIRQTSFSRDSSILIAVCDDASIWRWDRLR
EZH2, sequence (Q15022 whole entry partner): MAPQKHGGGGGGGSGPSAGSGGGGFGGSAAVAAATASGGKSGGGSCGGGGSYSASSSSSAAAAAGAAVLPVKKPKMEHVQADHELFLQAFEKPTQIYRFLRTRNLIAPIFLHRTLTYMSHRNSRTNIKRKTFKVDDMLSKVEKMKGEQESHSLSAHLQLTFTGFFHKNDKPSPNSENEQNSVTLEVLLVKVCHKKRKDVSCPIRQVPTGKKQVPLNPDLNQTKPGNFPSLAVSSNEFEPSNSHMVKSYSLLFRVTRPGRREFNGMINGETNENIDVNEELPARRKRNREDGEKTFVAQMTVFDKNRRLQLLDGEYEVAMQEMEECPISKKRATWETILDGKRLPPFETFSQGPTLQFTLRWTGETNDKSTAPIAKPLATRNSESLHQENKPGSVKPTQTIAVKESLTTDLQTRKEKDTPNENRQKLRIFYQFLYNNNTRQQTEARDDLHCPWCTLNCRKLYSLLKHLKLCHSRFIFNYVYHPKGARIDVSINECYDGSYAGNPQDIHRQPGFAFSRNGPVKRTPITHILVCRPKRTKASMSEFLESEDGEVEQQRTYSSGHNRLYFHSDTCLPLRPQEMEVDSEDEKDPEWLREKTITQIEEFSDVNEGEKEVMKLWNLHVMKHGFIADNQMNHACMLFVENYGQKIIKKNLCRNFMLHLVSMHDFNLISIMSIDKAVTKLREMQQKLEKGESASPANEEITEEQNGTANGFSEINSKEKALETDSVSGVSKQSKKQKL

Row | Structure (SMILES) | IC50 (EZH2) | EC50 [1]
1 | CCCC(=O)N1CCC([C@@H](C)n2c(C)c(C(=O)NCc3c(OC)cc(C)[nH]c3=O)c3ccccc32)CC1 [Compound 209] | < 100 nM | 400 to 2000 nM
2 | CCC(C)C(=O)N1CCC([C@@H](C)n2c(C)c(C(=O)NCc3c(OC)cc(C)[nH]c3=O)c3ccccc32)CC1 (stereo partly shown) [Compound 210] | < 100 nM | 400 to 2000 nM
3 | COc1cc(C)[nH]c(=O)c1CNC(=O)c1c(C)n([C@H](C)C2CCN(C(=O)C(C)=O)CC2)c2ccccc12 [Compound 211] | < 100 nM | 400 to 2000 nM
4 | COc1cc(C)[nH]c(=O)c1CNC(=O)c1c(C)n([C@H](C)C2CCN(C(=O)Cc3ccccc3)CC2)c2ccccc12 [Compound 212] | < 100 nM | < 400 nM
5 | COc1cc(C)[nH]c(=O)c1CNC(=O)c1c(C)n([C@H](C)C2CCN(C(=O)CC(C)C)CC2)c2ccccc12 [Compound 213] | < 100 nM | < 400 nM
6 | COc1cc(C)[nH]c(=O)c1CNC(=O)c1c(C)n([C@H](C)C2CCN(C(=O)c3ccc(C#N)cc3)CC2)c2ccccc12 [Compound 214] | < 100 nM | 400 to 2000 nM
7 | COc1cc(C)[nH]c(=O)c1CNC(=O)c1c(C)n([C@H](C)C2CCN(C(=O)C3CCC3)CC2)c2ccccc12 [Compound 216] | < 100 nM | < 400 nM
8 | CC[C@H](C1CCN(CC(F)F)CC1)n1c(C)c(C(=O)NCc2c(OC)cc(C)[nH]c2=O)c2ccccc21 [Compound 219] | < 100 nM | < 400 nM
9 | COc1cc(C)[nH]c(=O)c1CNC(=O)c1c(C)n([C@H](C)C2CCN(CC3(C)COC3)CC2)c2ccccc12 [Compound 220] | < 100 nM | < 400 nM
10 | COc1cc(C)[nH]c(=O)c1CNC(=O)c1c(C)n([C@H](C)C2CCN(C)CC2F)c2ccccc12 (stereo partly shown) [Compound 221] | < 100 nM | < 400 nM
11 | COc1cc(C)[nH]c(=O)c1CNC(=O)c1c(C)n([C@H](C)C2CCN(CC3(F)COC3)CC2)c2ccccc12 [Compound 222] | < 100 nM | < 400 nM
12 | COc1cc(C)[nH]c(=O)c1CNC(=O)c1c(C)n([C@H](C)C2CCN(C(=O)C3CC(F)(F)C3)CC2)c2ccccc12 [Compound 228] | < 100 nM | 400 to 2000 nM
13 | COc1cc(C)[nH]c(=O)c1CNC(=O)c1c(C)n([C@H](C)C2CCN(C(=O)C3CC3(F)F)CC2)c2ccccc12 (stereo partly shown) [Compound 229] | < 100 nM | 400 to 2000 nM
14 | COCC(F)(F)C(=O)N1CCC([C@@H](C)n2c(C)c(C(=O)NCc3c(OC)cc(C)[nH]c3=O)c3ccccc32)CC1 [Compound 230] | < 100 nM | < 400 nM
15 | CC(=O)N1CC(N2CCC([C@@H](C)n3c(C)c(C(=O)NCc4c(C)cc(C)[nH]c4=O)c4ccccc43)CC2)C1 [Compound 231] | < 100 nM | 400 to 2000 nM
16 | COc1cc(C)[nH]c(=O)c1CNC(=O)c1c(C)n([C@H](C)C2CCN(Cc3ccc(C#N)cc3)CC2)c2ccccc12 [Compound 232] | < 100 nM | < 400 nM
17 | CCC(C)(C)C(=O)N1CCC([C@@H](C)n2c(C)c(C(=O)NCc3c(OC)cc(C)[nH]c3=O)c3ccccc32)CC1 [Compound 233] | < 100 nM | < 400 nM
18 | COc1cc(C)[nH]c(=O)c1CNC(=O)c1c(C)n([C@H](C)C2CCN(C(=O)C3CCCC3)CC2)c2ccccc12 [Compound 235] | < 100 nM | 400 to 2000 nM
19 | COc1cc(C)[nH]c(=O)c1CNC(=O)c1c(C)n([C@H](C)C2CCN(C(=O)C(C)(C)OC)CC2)c2ccccc12 [Compound 236] | < 100 nM | < 400 nM

Row | Structure (SMILES) | IC50 (EZH2) | EC50 [1]
20 | COc1cc(C)[nH]c(=O)c1CNC(=O)c1c(C)n([C@H](C)C2CCN(C(=O)Cn3ccnc3C)CC2)c2ccccc12 [Compound 237] | < 100 nM | > 2000 nM
21 | COc1cc(C)[nH]c(=O)c1CNC(=O)c1c(C)n([C@H](C)C2CCN(Cc3cnn(C)c3)CC2)c2ccccc12 [Compound 238] | < 100 nM | > 2000 nM
22 | COc1cc(C)[nH]c(=O)c1CNC(=O)c1c(C)n([C@H](C)C2CCN(Cc3nccn3C)CC2)c2ccccc12 [Compound 239] | < 100 nM | 400 to 2000 nM
23 | COc1cc(C)[nH]c(=O)c1CNC(=O)c1c(C)n([C@H](C)C2CCN(Cc3cncnc3)CC2)c2ccccc12 [Compound 240] | < 100 nM | 400 to 2000 nM
24 | COc1cc(C)[nH]c(=O)c1CNC(=O)c1c(C)n([C@H](C)C2CCN(Cc3ncccn3)CC2)c2ccccc12 [Compound 241] | < 100 nM | 400 to 2000 nM
25 | COc1cc(C)[nH]c(=O)c1CNC(=O)c1c(C)n([C@H](C)C2CCN(C(=O)C3(F)CCN(C)CC3)CC2)c2ccccc12 [Compound 242] | < 100 nM | 400 to 2000 nM
26 | COc1cc(C)[nH]c(=O)c1CNC(=O)c1c(C)n([C@H](C)C2CCN(C(=O)C3CCN(C)CC3)CC2)c2ccccc12 [Compound 243] | < 100 nM | > 2000 nM
27 | COc1cc(C)[nH]c(=O)c1CNC(=O)c1c(C)n([C@H](C)C2CCN(Cc3cccnc3)CC2)c2ccccc12 [Compound 244] | < 100 nM | 400 to 2000 nM
28 | COc1cc(C)[nH]c(=O)c1CNC(=O)c1c(C)n([C@H](C)C2CCN(Cc3ccncc3)CC2)c2ccccc12 [Compound 245] | < 100 nM | < 400 nM
29 | COc1cc(C)[nH]c(=O)c1CNC(=O)c1c(C)n([C@H](C)C2CCN(Cc3ccnc(C)c3)CC2)c2ccccc12 [Compound 246] | < 100 nM | < 400 nM
30 | COc1cc(C)[nH]c(=O)c1CNC(=O)c1c(C)n([C@H](C)C2CCN(C(=O)Cc3cc(C)no3)CC2)c2ccccc12 [Compound 247] | < 100 nM | 400 to 2000 nM
31 | COc1cc(C)[nH]c(=O)c1CNC(=O)c1c(C)n([C@H](C)C2CCN(C(=O)N3CCC(F)(F)C3)CC2)c2ccccc12 [Compound 248] | < 100 nM | 400 to 2000 nM
32 | COc1cc(C)[nH]c(=O)c1CNC(=O)c1c(C)n([C@H](C)C2CCN(C(=O)N3CCC(F)(F)CC3)CC2)c2ccccc12 [Compound 249] | < 100 nM | 400 to 2000 nM
33 | COc1cc(C)[nH]c(=O)c1CNC(=O)c1c(C)n([C@H](C)C2CCN(Cc3ccc(C#N)cn3)CC2)c2ccccc12 [Compound 250] | < 100 nM | < 400 nM
34 | COc1cc(C)[nH]c(=O)c1CNC(=O)c1c(C)n([C@H](C)C2CCN(Cc3ccnc(C(F)(F)F)c3)CC2)c2ccccc12 [Compound 251] | < 100 nM | < 400 nM
35 | COc1cc(C)[nH]c(=O)c1CNC(=O)c1c(C)n([C@H](C)C2CCN(Cc3cc(C)nc(C)c3)CC2)c2ccccc12 [Compound 252] | < 100 nM | < 400 nM
36 | COc1cc(C)[nH]c(=O)c1CNC(=O)c1c(C)n([C@H](C)C2CCN(C(C)(C)C(C)=O)CC2)c2ccccc12 [Compound 253] | < 100 nM | < 400 nM
37 | COc1cc(C)[nH]c(=O)c1CNC(=O)c1c(C)n([C@H](C)C2CCN(C3CC3)CC2)c2ccccc12 [Compound 254] | < 100 nM | < 400 nM
38 | COc1cc(C)[nH]c(=O)c1CNC(=O)c1c(C)n([C@H](C)C2CCN(Cc3ccn(C)n3)CC2)c2ccccc12 [Compound 255] | < 100 nM | > 2000 nM
